Data reported in US8404650B2, “Methods of treating cancer with doxazolidine and prodrugs thereof” (priority 2005, dated 2013).

Experiments:
Type in all cases: cell-based
[1] = Functional measure of hydrolysis: pre-hydrolysis in RPMI medium or human serum, then growth of MCF-7/Adr cells; conditions: read out by growth of MCF-7/Adr cells; for half-life at 10 µM: RPMI 1640 medium, RPMI 1640, 37° C., estimated from FIG. 5A, read-out: Half-life in cell culture media
Protocol: Hydrolysis of Doxaz or DoxF in RPMI medium was performed by dissociating the cells with trypsin/EDTA, counting and then suspending the cells in growth media to a concentration of 5×10^3 cells/mL. This cell suspension was dispensed in 200 μL aliquots (1000 cells/well) into the inside wells of 96-well tissue culture plates. Plates were then incubated for 24 h at 37° C. in a humidified atmosphere of 5% CO2, and 95% air. The medium was replaced with 180 μL of growth medium prior to addition of the drug. RPMI media (no serum added) was divided into 5 mL aliquots in conical vials and heated to 37° C. in a constant temperature bath. Doxaz and DoxF were dissolved in DMSO at a concentration of 1 mM equivalents. The concentration was then corrected by measuring the solution absorbance at 480 nm (ε=11,500 M^−1 cm^−1). Drug solution (50 μl) was added to an individual conical vial and the drug was allowed to hydrolyze (at 10 μM) for 0, 10, 20, 30, 45, 60, 75 or 90 min. Experiments were performed such that all hydrolysis times would end simultaneously. After hydrolysis, 20 μL of the drug solution was added to a lane of wells on the 96-well plate to give a final concentration of 1 μM equivalents (sum of Doxorubicin, Doxaz and/or DoxF) for treatment of cells. Additionally, two lanes were treated with 20 μL of growth medium containing 1% sterile DMSO for a control. The cells were incubated at 37° C. for 3 h, at which time the drug solutions were replaced with 200 μL of fresh growth media. The cells were then incubated for 5 days, and the extent of colony formation was determined using a crystal violet staining assay measuring optical density at 588 and 770 nm.
Hydrolysis of DoxF in RPMI medium or 100% human serum was performed as described above except drug hydrolysis was performed at 1 μM equivalents and drug treatment was at 100 nM equivalents. During drug treatment, the medium was either 90% RPMI/10% FBS or 90% RPMI/10% human serum. During cell growth, the medium was 90% RPMI/10% FBS. […]

[2] = tested on: SHP-77; test: Growth inhibition of SHP-77 small cell lung cancer cells; conditions: 24 h drug treatment, crystal violet
Description: SHP-77 small cell lung cancer cells were also of interest because they express modest amounts of both enzymes. Inhibition of the growth of cardiomyocytes was used as a measure of cardiotoxicity, and inhibition of the growth of Vero cells, green monkey kidney cells, was again used as another measure of toxicity to normal cells.

[3] = tested on: SK-HEP-1 liver cancer cells; test: Drug uptake by SK-HEP-1 cells, flow cytometry; conditions: in the presence of fetal bovine serum
Protocol: Uptake of pentyl PABC-Doxaz and Dox by multidrug resistant MCF-7/Adr breast cancer cells and SK-HEP-1 liver cancer cells in the presence of fetal bovine serum was determined by flow cytometry using drug fluorescence as a measure of drug in cells.

COc1cccc2c1C(=O)c1c(O)c3c(c(O)c1C2=O)C[C@@](O)(C(=O)CO)C[C@@H]3OC1CC2C(OCN2CN2COC3C(C)OC(O[C@H]4C[C@](O)(C(=O)CO)Cc5c(O)c6c(c(O)c54)C(=O)c4c(OC)cccc4C6=O)CC32)C(C)O1 (stereo partly drawn) [DoxF, Doxoform, reference compound]
half-life at 1 µM ([1]; 100% human serum, 100% pooled human serum, 37° C., start 100 nM equivalents, estimated from FIG. 5B): ~3 min
half-life at 10 µM [1]: ~1.5 min

COc1cccc2c1C(=O)c1c(O)c3c(c(O)c1C2=O)C[C@@](O)(C(=O)CO)C[C@@H]3O[C@H]1C[C@@H]2NCO[C@@H]2[C@H](C)O1 [Doxaz, Doxazolidine]
half-life at 10 µM [1]: ~1 min

COc1cccc2c1C(=O)c1c(O)c3c(c(O)c1C2=O)C[C@@](O)(C(=O)CO)C[C@@H]3O[C@H]1C[C@H](N)[C@H](O)[C@H](C)O1 [Doxorubicin, reference compound]
IC50 ([2]; Homo sapiens, SHP77): 126 nM

CCCCCOC(=O)Nc1ccc(COC(=O)N2COC3C(C)OC(OC4CC(O)(C(=O)CO)Cc5c(O)c6c(c(O)c54)C(=O)c4c(OC)cccc4C6=O)CC32)cc1 (stereo not drawn) [Pentyl PABC-Doxaz, Pentyl 4-(N-doxazolidinylcarbonyloxymethyl)phenylcarbamate]
Uptake relative to Dox, SK-HEP-1 [3]: taken up much better
Cell growth inhibition IC50, SHP-77 [2]: −7.3 ± 0.1 log of molar concentrations
